Source: patent US5068358A, “Process for extracting N-methyl-2-pyrrolidone” (Hoechst Aktiengesellschaft, priority 1988, dated 1991)
Where two headings read alike, the source gives them in different places.

Legend:
[1] = room temperature; cited from earlier work
[2] = format: physicochemical; conditions: nonylphenol
Description: From the group of the phenols as defined above and substituted by aliphatic radicals, those are advantageously selected for the use according to the invention, whose melting point is below 90° C., preferably below 50° C. and especially below 20°-30° C. A low melting point of the phenol derivatives used allows the process to be carried out at correspondingly low temperatures, which has a very favorable effect on the partition coefficient KD. KD is defined as follows: [formula]
The phases were then allowed to settle and were separated, and the concentration of NMP in the two phases was determined.
After the phases had been allowed to settle, these were separated, and the concentration of NMP in the two phases was determined.
Thereupon, the phases were allowed to settle and were separated, and the concentration of NMP in the two phases was determined.
[…] After the phases had been allowed to settle, these were separated, and the concentration of NMP in the two phases was determined.

[3] = Example 1a, feed 35% NMP, phase volume ratio 1:4, room temperature
[4] = Example 1b, feed 35% NMP, phase volume ratio 1:6, room temperature
[5] = Example 1c, feed 35% NMP, phase volume ratio 1:10, room temperature
[6] = Example 1e, feed 33% NMP, phase ratio 1:2, 70° C.
[7] = Example 1f, feed 33% NMP, phase volume ratio 1:10, 70° C.
[8] = Example 1d, feed 9% NMP, phase volume ratio 1:1, room temperature

Cc1cccc(O)c1 [m-cresol]
solubility in water [1]: 2.3 % by weight

CN1CCCC1=O [NMP, N-methyl-2-pyrrolidone]
Aqueous raffinate phase (% by weight of NMP) [2, 3]: 0.75 % by weight | Organic extract phase (% by weight of NMP) [2, 3]: 8.2 % by weight | Aqueous raffinate phase (% by weight of NMP) [2, 4]: 0.30 % by weight | Organic extract phase (% by weight of NMP) [2, 4]: 5.8 % by weight | Aqueous raffinate phase (% by weight of NMP) [2, 5]: 0.12 % by weight | Organic extract phase (% by weight of NMP) [2, 5]: 3.4 % by weight | Aqueous raffinate phase (% by weight of NMP) [2, 6]: 9.0 % by weight | Organic extract phase (% by weight of NMP) [2, 6]: 12.4 % by weight | Aqueous raffinate phase (% by weight of NMP) [2, 7]: 1.0 % by weight | Organic extract phase (% by weight of NMP) [2, 7]: 3.4 % by weight | Aqueous raffinate phase (% by weight of NMP) [2, 8]: 0.64 % by weight | Organic extract phase (% by weight of NMP) [2, 8]: 8.3 % by weight

Cc1cc(C)cc(O)c1 [3,5-dimethylphenol]
solubility in water [1]: 0.49 % by weight
